This note sets out measurements from patent US4959377A, “Phenoxypyridinamine compounds which are use as a dermatological composition” (Hoechst-Roussel Pharmaceuticals Inc., priority 1989, dated 1990).

Test [1] has as its system ear edema induced by topical application of TPA (phorbol 12-myristate acetate). The experiment in a line: TPA-Induced Ear Edema (TPAEE). The settings on record: for TPAEE: 10 μg/ear topical, TPA 10 μg/ear, five hours. The test is classed as in vivo, Female Swiss Webster mice. The protocol: TPA-Induced Ear Edema (TPAEE)
The purpose of this assay was to determine the ability of a topically-applied compound to prevent ear edema induced by topical application of TPA (phorbol 12-myristate acetate). Female Swiss Webster mice topically received TPA (10 μg/ear) on the right ear and vehicle on the left ear. The test compound (10 μg/ear) was applied to both ears. After five hours, the animals were sacrificed and an ear punch (4 mm) was taken from each ear. The difference in right and left ear punch weights for each animal was determined to assess activity. […] See Young, J. M. et al., J. Invest. Dermatol., 80 (1983), pp. 48-52.

Test [2] concerns naja naja (snake venom) phospholipase A2 -induced paw edema. The test is described as follows: Phospholipase A2-induced Paw Edema (PIPE). Type of test: in vivo, male Wistar rats. Here is the method:
Phospholipase A2 -induced Paw Edema (PIPE)
The ability of compounds to prevent naja naja (snake venom) phospholipase A2 -induced paw edema in male Wistar rats (100-125 g) was measured. PLA2 (3 units/paw) alone or with 0.1M of the test compound was injected in the subplantar region of the rat left hindpaw. Immediately subsequent to the injection and at two hours post administration the paw was immersed in a mercury bath, and paw displacement was measured on a recorder via a transducer. […] See Giessler, A. J. et al., Agents and Actions, Vol. 10, Trends in Inflammation Research (1981), p. 195.

The target in test [3] is T1, porcine pancreatic PLA2 (Sus scrofa, UniProt P00592).
T1 construct: from tissue; host or cells: porcine pancreas
T1 sequence (P00592 23-146): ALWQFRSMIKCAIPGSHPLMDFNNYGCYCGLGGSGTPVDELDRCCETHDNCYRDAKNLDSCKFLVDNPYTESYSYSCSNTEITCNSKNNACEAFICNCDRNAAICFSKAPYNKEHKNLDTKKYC
The test is described as follows: In Vitro Phospholipase A2 Assay (PLA2). Type of test: biochemical. The settings on record: 0.01 M test compound, 37° C., pH 8.0; read-out: PLA2 (difference vs. control). The protocol:
In Vitro Phospholipase A2 Assay (PLA2)
The ability of a compound to modulate PLA2 activity (cleavage of ^14 C-dipalmitoyl phosphotidylcholine at the 2-position to ^14 C-palmitic acid) was quantitated in this assay. The reaction mixture contained Tris buffer (25 mM), pH 8.0, calcium chloride (2.0 mM), bovine serum albumin (0.5 mg), dipalmitoyl phosphotidylcholine (8×10^-5M), (^14 C-palmitoyl)dipalmitoyl phosphotidylcholine (6×10^3cpm), porcine pancreatic PLA2 (3.2 units) and the test compound. The reaction was run at 37° C. in a shaking incubator. The reaction was quenched and an internal standard was added in order to determine sample recovery. The samples were loaded onto C18 columns, eluted with ethanol, and the radioactivity was then measured. […] See Feyen, J. H. M., et al., Journal of Chromatography 259 (1983), pp. 338-340.

The test system of test [4] is mouse ear edema induced by topical application of arachidonic acid. The experiment in a line: Arachidonic Acid-Induced Ear Edema (AAEE). The test is classed as in vivo, Female Swiss Webster mice. The protocol:
Arachidonic Acid-Induced Ear Edema (AAEE)
The purpose of this assay was to determine the ability of a topically-applied compound to prevent mouse ear edema induced by topical application of arachidonic acid. Female Swiss Webster mice topically received vehicle or test compound (1.0 mg/ear) on both ears (10 μl on outer and inner ears). After 30 minutes, the right ear of all groups received arachidonic acid (4 mg/ear) and the left ear received vehicle alone. After an additional 1 hour, the mice were sacrificed and an ear punch (4 mm) was taken from each ear. The difference in right and left ear punch weights for each animal was determined to assess activity. […] See Young, J. M. et al., J. Invest. Dermatol., 80, (1983), pp 48-52.

Counter-ions that a name gives are not always drawn.

For the molecule `Nc1cnccc1Oc1ccccc1` [4-phenoxy-3-pyridinamine, 4-Phenoxy-3-pyridinamine], in test [1], the TPAEE is recorded as -34%.

Turning to `Cl.Nc1ccncc1Oc1ccccc1` [3-phenoxy-4-pyridinamine hydrochloride, 3-Phenoxy-4-pyridinamine hydrochloride], the “PIPE (difference in edema vs. control)” value in test [2] (0.1 M test compound injected with PLA2 (3 units/paw), subplantar, rat hindpaw, two hours post administration) is -79%. For the same molecule, the inhibition at 10000 µM in test [3] was determined as 95%. The AAEE in test [4] (1 mg/ear topical, arachidonic acid 4 mg/ear, 1 hour) is listed as -31%. Besides, the TPAEE in test [1] was -60%.

In the case of `COC(=O)c1ccccc1Oc1cnccc1N` [2-(4-Amino-3-pyridinyloxy)benzoic acid methyl ester hydrochloride], the inhibition at 10000 µM in test [3] turned out to be 38%.

On to `C[C@]12CCC(=O)C=C1CC[C@@H]1[C@@H]2[C@@H](O)C[C@@]2(C)[C@H]1CC[C@]2(O)C(=O)CO` [hydrocortisone, reference compound], for which the “ED50 (PIPE standard)” value in test [2] (standard, rat paw edema) was 0.46 M. Also, the “ED50 (TPAEE standard)” value in test [1] (standard, topical) came to 47 μg/ear.

For the molecule `CC(=O)Nc1ccncc1Oc1ccccc1` [N-(3-Phenoxy-4-pyridinyl)acetamide hydrochloride], the inhibition at 10000 µM in test [3] was determined as 73%.

Regarding `COc1ccc2c(c1)c(CC(=O)O)c(C)n2C(=O)c1ccc(Cl)cc1` [indomethacin, reference compound], the “ED50 (AAEE standard)” value in test [4] (standard, topical) was determined as 1.5 mg/ear.

For `COc1ccc(Oc2c[n+]([O-])ccc2[N+](=O)[O-])cc1` [3-(4-Methoxyphenoxy)-4-nitropyridine-1-oxide], the TPAEE in test [1] is -43%.

Turning to `CCOC(=O)Cc1ccc(Oc2cnccc2N)cc1.O=C(O)C(=O)O` [4-(4-Amino-3-pyridinyloxy)benzeneacetic acid ethyl ester oxalate], the TPAEE in test [1] is reported as -39%.

For the molecule `Nc1ccncc1Oc1ccccc1CO` [2-(4-Amino-3-pyridinyloxy)benzenemethanol oxalate], the inhibition at 10000 µM in test [3] is 82%.
